This assay deals with human IgE myeloma protein. Kind of assay: Human IgE ELISA of guinea pig immune sera. More on the design: species or system guinea pigs. The following applies: in vivo. The method, then: These peptide immunogens were used to immunize groups of 3 guinea pigs using 100 μg/dose, formulated in CFA at week 0, IFA at weeks 3 and 6, and administered intramuscularly. For comparison, a group of two animals were immunized with a peptide/KLH carrier protein conjugate at 200 μg/dose, similarly administered. ELISA results of serum samples collected at week 8 are shown. In the ELISA a human IgE myeloma protein (American Biosystem, Inc. cat no. A113) was used as the solid-phase immunoadsorbant. The procedure used was identical to the peptide-based ELISAs described previously, except IgE myeloma was used as the solid phase immunoadsorbant. […] The inclusion of the Inv domain sequence (SEQ ID NO:78) augmented the immunogenicity, as shown by the enhanced immunogenicity of SEQ ID NO:99 over SEQ ID NO:98.

The values below come from patent US6713301B1, “Artificial T helper cell epitopes as immune stimulators for synthetic peptide immunogens” (United Biomedical, Inc., priority 1998, dated 2004).

Take “98 (KKKIITITRIITIITTIDGGCGETYQSRVTHPHLPRALMRSTTKC) [compound 98]”: the “Log10 ELISA (average for animals of the group)” value is 2.35 Log10 and the No. responding is 3/3.

B1: 99 (peptide)
chain: TAKSKKFPSYTATYQFGGKKKIITITRIITIITTIDGGCGETYQSRVTHPHLPRALMRSTTKC
For the molecule B1, the “Log10 ELISA (average for animals of the group)” value is 3.28 Log10 and the No. responding is on record as 3/3.
